Results from patent publication US20220226473A1, “Nucleic acid nanocarrier drug and preparation method thereof, pharmaceutical composition and application thereof” (BAI YAO ZHI DA (BEIJING) NANOBIO TECHNOLOGY CO., LTD., priority 2018, published 2022).
{Biotin} = biotin of the strand; {Cy5} = Cy5 fluorescent label

Experiments:
SGC7901 cells = experiment: Cytotoxicity of RNAh-Biotin-quasar670-hdcp nanoparticles; assay type: cell-based
HL60 cells = experiment: Cytotoxicity of RNAh-Bio-670-EPB nanoparticles, CellTiter-Glo; assay type: cell-based
Description: Preparing a freshly prepared reagent into a corresponding volume container, and adding PBS to be quantified to 10 μM.
Cells are cultured at 37 DEG C. and 5% CO2 in a corresponding basal medium in which 10% FBS and 1% PS are respectively added. The cell density used in the experiment is above 80%. The cells are collected, and centrifuged at 1000 rpm for 4 minutes, the medium is resuspended, the cell concentration is adjusted, and it is added to the 96-well plate in a volume of 3000 cells per 50 μL, and each group has 3 replicate wells.
After 24 hours, the compound solution is transferred to each well by 50 μL/well.
The above cells after administration are cultured for 72 hours under a condition of 37 DEG C and 5% CO2.
The well plate is brought to a room temperature in advance and stands for 30 minutes, 100 μL of a CellTiter-Glo® reagent is added to each well of the well plate and mixed for 2 minutes on a shaker to promote cell lysis. The Perkin Elmer Envision 2104 Multilabel Reader is used to read values and the values are recorded.
The acquired experiment data is analyzed and processed by using excel software, and GraphPad Prism 5 software is used for curve fitting analysis.

SH-SY5Y cells [1] = experiment: Cytotoxicity of RNAh-Biotin-quasar670-aspirin nanoparticles, CTG kit; assay type: cell-based; conditions: highest administration concentration 10 μM
Description: Experiment purpose: an effect of a compound on proliferation of a target tumor cell line is researched.
Experiment design: the compound is diluted in 8 concentration gradients and sequentially added to the target tumor cell line and incubated for 72 hours, the CTG kit is used to detect the effect of the compound on the cell proliferation.

MOLT4 cells = experiment: Cytotoxicity of RNAh-Bio-670-MTX nanoparticles, CTG; assay type: cell-based, human; conditions: maximum administration concentration 5 μm
Description: 1) Using the RPMI1640+10% FBS+1% PS medium to culture the MOLT4 cells at 37 DEG C. and 5% CO2.
2) Collecting the cells, centrifuging at 800 rpm for 5 minutes, resuspending the medium, adjusting the cell concentration, and adding to the 96-we plate in a volume of 5000 cells per 90 μL. […]
4) After being cultured for 72 hours, adding 100 μL of the CTG reagent to each well, shaking for 2 minutes, and standing at the room temperature for 10 minutes, herein a whole process is protected from light.
5) Finally using Soft Max Pro5 software to read.

SH-SY5Y cells [2] = experiment: Cytotoxicity in SH-SY5Y cells, CellTiter-Glo (Embodiment 8); assay type: cell-based
Description: (1) Using the RPMI1640+10% FBS+1% PS medium to culture the SH-SY5Y cells at 37 DEG C and 5% CO2.
(2) Collecting the cells, centrifuging at 800 rpm for 5 minutes, resuspending the medium, adjusting the cell concentration, and adding to the 96-well plate in a volume of 5000 cells per 90 μL.
(3) Diluting a sample to be tested with the culture medium on the next day, respectively adding 200 nM to each sample, herein each sample has 4 replicate wells for replication.
(4) After being cultured for 72 hours, adding 100 μL of the CTG reagent to each well, shaking for 2 minutes, and standing at the room temperature for 10 minutes, herein a whole process is protected from light.
(5) Finally using Soft Max Pro5 software to read.

MCF-7 cells [3] = experiment: Cytotoxicity of RNAh-Bio-670-THP and RNAh-Bio-670-DNR nanoparticles, CTG; assay type: cell-based, human; conditions: MCF-7, 72 h, 200 nM
Description: 3) Diluting a sample to be tested with the culture medium on the next day, respectively adding 200 nM to each sample, herein each sample has 4 replicate wells for replication.
Samples to be tested: small molecular drug THP and RNAh-Bio-670-THP nanoparticles;
1) Except that it is the MCF-7 cells, the rest are the same as (III).

NCI-H1975 cells [4] = experiment: Cytotoxicity of DNAh-Bio-EGFRapt-Cy5-EPB nanoparticles, CellTiter 96 AQueous One Solution; assay type: cell-based; conditions: for IC50: NCI-H1975, 96 hours
Description: GraphPad Prism5.0 software is used to process data graphically. In order to calculate the IC50, “W”-shaped non-linear regression analysis is performed on the data to match a suitable dosage-effect curve. A calculation formula of the cell survival rate is as follows, the IC50 may be automatically calculated in the GraphPad Prism 5.0.

MCF-7 cells [5] = experiment: as above; assay type: cell-based, human
Description: GraphPad Prism5.0 software is used to process data graphically. […] A calculation formula of the cell survival rate is as follows, the IC50 may be automatically calculated in the GraphPad Prism 5.0. […]

SGC-7901 cells [6] = experiment: Cytotoxicity of DNAh-Biotin-EGFRapt-Cy5-THP nanoparticles; assay type: cell-based, human; conditions: for IC50: SGC-7901
Description: (§1) 2) adjusting the cell density to 2.22×10^4/mL with a growth medium:
(§2) 3) planting 90 μL/well of cell suspension into the 96-well plate, herein the number of cells per well in the plate is 2000;
(§3) 4) placing the planted cell plate in the incubator at 37 DEG C. and incubating overnight;
(§4) 5) performing 3.16-fold gradient dilution on the compound at 9 concentration points;
(§5) 6) taking out the cell culture plate, and adding 10 μL/well of 10× concentration drug working solution to the corresponding wells of the cell culture plate, herein three replicate holes are made for each concentration, and the final drug action concentration is shown in the table below.
(§6) 7) placing the cell culture plate in the incubator and continuously incubating for 96 hours;
(§7) 8) placing the CellTiter 96@D AQueous One Solution reagent at the room temperature and thawing for 90 minutes or thawing in a water bath at 37 DEG C., and then equilibrating at the room temperature for 30 minutes;
(§8) 9) adding 20 μL/well of the CellTiter 96® AQueous One Solution reagent to the cell culture plate;
(§9) 10) placing the cell culture plate in the incubator at 37 DEG C. and continuously incubating for 3 hours;
(§10) 11) using the microplate reader to read a OD490 value of each well in the cell plate; and
(§11) 12) data processing and analysis.
(§12) GraphPad Prism5.0 software is used to process data graphically. In order to calculate the IC50, […] non-linear regression analysis is performed on the data to match a suitable dosage-effect curve. A calculation formula of the cell survival rate is as follows, the IC50 may be automatically calculated in the GraphPad Prism 5.0.
(§13) Cell survival rate (%)=(ODtest well−ODblank control)/(ODnegative control−ODblank control)×100%.
(§14) II. Experiment Device and Method Same as (II)

SKOV3 cells [7] = experiment: as above; assay type: cell-based, human; conditions: for IC50: SKOV3
Description: as §1, §2, §3, §4, §5, §6, §7, §8, §9, §10, §11, §12, §13, §14

HepG2 cells = experiment: Cytotoxicity of RNAh-Biotin-quasar670-flu nanoparticles; assay type: cell-based
Description: I. Samples to be tested: small molecular […] chemical drug and RNAh-Biotin-quasar670-flu nanoparticles.
In order to further determine that the RNA nanoparticles without carrying the […] have no apparent cytotoxicity to the HepG2 cells, the inventor further designs a toxicity experiment of the RNAh-Biotin-FAM (FAM is a fluorescent marker), a targeted fluorescent carrier, to the HepG2 cells (a drug administration gradient in the experiment is as follows: 100 μM, 31.6 μM, 10 μM, 3.16 μM, 1 μM, 316 nM, 100 nM, 31.6 nM, 10 nM, and 0 (10% PBS)), the results thereof are shown in Table 134 and FIG. 95.

MCF-7 cells [8] = experiment: Flow cytometry binding of DNAh-Bio-EGFRapt-Cy5-EPB nanoparticles; assay type: cell-based, human; conditions: 2 hours
Description: (§15) MCF-7 (source: ATCC, and article number: HTB-22), NCI-H1975 (source: ATCC, and article number: CRL-5008); a culture medium is MEM+10% FBS, and culture conditions are 37 DEG C., 5% CO2, and saturated humidity.
(§16) 1. Adjusting a cell state to a logarithmic growth phase, changing the medium to a medium without biotin and folic acid, and incubating overnight in the incubator at 37 DEG C;
(§17) 2. dissolving the substances to be tested and preparing the to-be-tested substance stock solution;
(§18) 3. digesting and collecting the single-cell suspension and counting, adjusting the cell density to 2×10^5/mL, planting 1 mL/well into the 24-well plate;
(§19) 4. respectively adding the substances to be tested to the corresponding cell wells, herein the final concentration is 2 μM, shaking and mixing uniformly;
(§20) 5. placing the cell plate in the incubator at 37 DEG C. and incubating for 2 hours;
(§21) 6. after the incubation, pancreatin-digesting and collecting the cell suspension;
(§22) 7. centrifugally collecting a cell precipitation, and washing twice with the PBS;
(§23) 8. finally, resuspending the cell precipitation with 300 μL of the PBS, and performing a flow cytometric on-machine detection;
(§24) 9. fluorescence carrier or epirubicin detection channels: excitation light wavelength: 488 nm, and emission light channel: 560 nm; and […]

SGC-7901 cells [9] = experiment: Flow cytometer binding of pirarubicin-loaded DNA nanoparticles; assay type: cell-based, human; conditions: SGC-7901, 2 μM, 2 hours
Description: (§25) 1). Adjusting a cell state to a logarithmic growth phase, changing the medium to a medium without biotin and folic acid, and incubating overnight in the incubator at 37 DEG C;
(§26) 2). dissolving the substances to be tested and preparing the to-be-tested substance stock solution;
(§27) 3). digesting and collecting the single-cell suspension and counting, adjusting the cell density to 2×10^5/mL, planting 1 mL/well into the 24-well plate;
(§28) 4). respectively adding the substances to be tested to the corresponding cell wells, herein the final concentration is 2 μM, shaking and mixing uniformly;
(§29) 5). placing the cell plate in the Incubator at 37 DEG C. and Incubating for 2 hours;
(§30) 6). after the incubation, pancreatin-digesting and collecting the cell suspension;
(§31) 7). centrifugally collecting a cell precipitation, and washing twice with the PBS;
(§32) 8). finally, resuspending the cell precipitation with 300 μL of the PBS, and performing a flow cytometric on-machine detection; herein detection channels of fluorescence carrier or pirarubicin targeted drug: excitation light wavelength: 488 nm, and emission light channel: 560 nm; and […]

SKOV3 cells [10] = experiment: as above; assay type: cell-based, human; conditions: SKOV3, 2 μM, 2 hours
Description: as §25, §26, §27, §28, §29, §30, §31, §32

NCI-H1975 cells [11] = experiment: Flow cytometry binding of DNAh-Bio-EGFRapt-Cy5-EPB nanoparticles; assay type: cell-based; conditions: 2 hours
Description: as §15, §16, §17, §18, §19, §20, §21, §22, §23, §24

[12] = administration concentration 5 μM

CC[C@@]1(O)C(=O)OCc2c1cc1n(c2=O)Cc2cc3cc(O)ccc3nc2-1 [10-hydroxycamptothecin]
Cell inhibition rate (%) when administration concentration is 5 μM (SGC7901 cells; SGC7901, 72 h, 5 μM): 75.43%
cell inhibition rate (%), SGC7901 cells (SGC7901 cells; [12]): 75.43%

N.N.[Cl][Pt][Cl] [Cisplatin]
inhibition rate to the HL60 cells (HL60 cells; highest administration concentration 10 μM): 99.96%
inhibition rate to the SH-SY5Y cells (SH-SY5Y cells [1]): 99.81%
inhibition rate to the MOLT4 cell proliferation (MOLT4 cells): 99.94%
IC50 (SH-SY5Y cells [2]; highest administration concentration 5 μM): 510 nM

COc1cccc2c1C(=O)c1c(O)c3c(c(O)c1C2=O)C[C@@](O)(C(C)=O)C[C@@H]3O[C@H]1C[C@H](N)[C@H](O)[C@H](C)O1 [Daunorubicin (DNR)]
cell survival rate (%) (MCF-7 cells [3]): 17.33%

COc1cccc2c1C(=O)c1c(O)c3c(c(O)c1C2=O)C[C@@](O)(C(=O)CO)C[C@@H]3O[C@H]1C[C@H](N)[C@@H](O)[C@H](C)O1 [EPB, epirubicin]
IC50 (HL60 cells; Homo sapiens, HL-60, 72 hours, read-out: IC50, HL60 cell proliferation): 69.8 nM
inhibition at 5 µM (HL60 cells; Homo sapiens, HL-60, concentration 5 μM, 72 hours, read-out: inhibition rate on HL60 cells): 99.2%
toxicity to NCI-H1975 cells (NCI-H1975 cells [4]; 96 hours): toxic to the NCI-H1975 cells
IC50 (NCI-H1975 cells [4]; Homo sapiens): 30.6 nM
toxicity to MCF-7 cells (MCF-7 cells [5]; 96 hours): toxic to the MCF-7 cells
IC50 (MCF-7 cells [5]; Homo sapiens, MCF7, MCF-7, 96 hours): 84.7 nM

COc1cccc2c1C(=O)c1c(O)c3c(c(O)c1C2=O)C[C@@](O)(C(=O)CO)C[C@@H]3O[C@H]1C[C@H](N)[C@H](O[C@@H]2CCCCO2)[C@H](C)O1 [Pirarubicin (THP)]
cell survival rate (%) (MCF-7 cells [3]): 13.85%

COc1cccc2c1C(=O)c1c(O)c3c(c(O)c1C2=O)C[C@@](O)(C(=O)CO)C[C@@H]3O[C@H]1C[C@H](N)[C@H](O[C@@H]2CCCCO2)[C@H](C)O1 [THP, pirarubicin]
toxicity to SGC-7901 cells (SGC-7901 cells [6]): toxic to the SGC-7901 cells
IC50 (SGC-7901 cells [6]; Homo sapiens): 27.4 nM
toxicity to SKOV3 cells (SKOV3 cells [7]): toxic to the SKOV3 cells
IC50 (SKOV3 cells [7]; Homo sapiens, SK-OV-3): 23.7 nM

Nc1c2c(nc3ccccc13)CCCC2 [Tacrine, tacrine]
cell proliferation rate (%) (SH-SY5Y cells [2]; 200 nM, 72 h): 39.75%

O=c1[nH]cc(F)c(=O)[nH]1 [pentafluorouracil]
Cell inhibition rate (%) when administration concentration is 5 μM (HepG2 cells; HepG2, 72 h, 5 μM): 39.02%
cell inhibition rate (%), HepG2 cells (HepG2 cells; [12]): 39.02%

B1: DNAh-Bio-EGFRapt-Cy5: targeted fluorescent carrier: DNA nanoparticle, strands SEQ ID NO: 172-174, 5′ biotin, EGFRapt, 3′ Cy5, thio-modified ends (nucleic acid)
chain 1: CGCGCGCCCACGAGCGTTCCGGGCGCGCCTTAGTAACGTGCTTTGATGTCGATTCGACAGGAGGC
chain 2: GCGCCCGGTTCGCCGCCAGCCGCCGC
chain 3: GCGGCGGCAGGCGGCCATAGCCGTGGGCGCGCG
modifications: chain 1: DNA, 5' {Biotin}, backbone not given here; chain 2: DNA, backbone not given here; chain 3: DNA, 3' {Cy5}, backbone not given here; first and last three bases thio-modified, DNA nanoparticle with EGFR aptamer, further chemistry not fully specified
binding rate to MCF-7 cells (MCF-7 cells [8]; 2 μM): 100%
Binding rate (%) (MCF-7 cells [8]; MCF-7, 2 μM): 99.97%
IC50 (NCI-H1975 cells [4]): > 316 nM
Binding rate (%) (SGC-7901 cells [9]): 99.99%
Binding rate (%) (SKOV3 cells [10]): 100%
binding rate to NCI-H1975 cells (NCI-H1975 cells [11]; 2 μM): 100%
Binding rate (%) (NCI-H1975 cells [11]; NCI-H1975, 2 μM): 100%
IC50 (SGC-7901 cells [6]): > 316 nM
IC50 (SKOV3 cells [7]): > 1000 nM
